Reference: patent US8501238B2, “Anti-infective agents and uses thereof” (priority 2007, dated 2013)

Legend:
[1] = tested on: genotype 1b-Con1 subgenomic replicon cell line; assay: microbe, parasite or virus in culture; type: cell-based, HCV; settings: Hepatitis C virus, 72 h, read-out: EC50 1b
[2] = tested on: genotype 1a-H77 subgenomic replicon cell line; assay: microbe, parasite or virus in culture; type: cell-based, HCV; settings: Hepatitis C virus, 72 h, read-out: EC50 1a

Row | SMILES | EC50 [1] [nM] | EC50 [2] [nM]
1 | COc1c(-c2ccc3cc(CNS(C)(=O)=O)sc3c2)cc(-n2ccc(=O)[nH]c2=O)cc1C(C)(C)C [IB-L0-2.40] | 100 to 1000 | > 1000
2 | COc1c(-c2ccc3c(c2)CCC3(F)CNS(C)(=O)=O)cc(-n2ccc(=O)[nH]c2=O)cc1C(C)(C)C (stereo not drawn) [IB-L0-2.12, N-((5-(3-tert-butyl-5-(2,4-dioxo-3,4-dihydropyrimidin-1(2H)-yl)-2-methoxyphenyl)-1-fluoro-2,3-dihydro-1H-inden-1-yl)methyl)methanesulfonamide] | < 10 | 10 to 100
3 | COc1c(-c2ccc3c(CNS(C)(=O)=O)coc3c2)cc(-n2ccc(=O)[nH]c2=O)cc1C(C)(C)C [IB-L0-2.18] | 10 to 100 | 100 to 1000
4 | COc1c(-c2ccc3c(c2)CC=C3CNS(C)(=O)=O)cc(-n2ccc(=O)[nH]c2=O)cc1-c1cccs1 [IB-L0-2.63] | 10 to 100 | 100 to 1000
5 | COc1c(-c2ccc3c(c2)CC=C3CNS(C)(=O)=O)cc(-n2ccc(=O)[nH]c2=O)cc1-c1ccco1 [IB-L0-2.65] | 10 to 100 | 100 to 1000
6 | CC(C)(C)c1cc(-n2ccc(=O)[nH]c2=O)cc(-c2ccc3c(CNS(C)(=O)=O)csc3c2)c1Cl [IB-L0-2.35, N-((6-(3-tert-butyl-2-chloro-5-(2,4-dioxo-3,4-dihydropyrimidin-1(2H)-yl)phenyl)benzo [b]thiophen-3-yl)methyl)methanesulfonamide] | 100 to 1000 | > 1000
7 | COc1c(-c2ccc3c(c2)CC[C@@H]3C(C)(C)NS(C)(=O)=O)cc(-n2ccc(=O)[nH]c2=O)cc1C(C)(C)C (single isomer, unassigned) [IB-L0-2.22] | 10 to 100 | 100 to 1000
8 | COc1c(-c2ccc3c(c2)CC[C@@H]3CNS(C)(=O)=O)cc(-n2ccc(=O)[nH]c2=O)cc1C(C)(C)C (single isomer, unassigned) [IB-L0-2.9] | < 10 | < 10
9 | COc1c(-c2ccc3c(c2)CCC3NS(C)(=O)=O)cc(-n2ccc(=O)[nH]c2=O)cc1C(C)(C)C (stereo not drawn) [IB-L0-2.44, N-(5-(3-tert-butyl-5-(2,4-dioxo-3,4-dihydropyrimidin-1(2H)-yl)-2-methoxyphenyl)-2,3-dihydro-1H-inden-1-yl)methanesulfonamide] | > 1000 | > 1000
10 | COc1c(-c2ccc3c(c2)CCC3C(=O)NS(C)(=O)=O)cc(-n2ccc(=O)[nH]c2=O)cc1C(C)(C)C (stereo not drawn) [IB-L0-2.34, 5-(3-tert-butyl-5-(2,4-dioxo-3,4-dihydropyrimidin-1(2H)-yl)-2-methoxyphenyl)-N-(methylsulfonyl)-2,3-dihydro-1H-indene-1-carboxamide] | 100 to 1000 | > 1000
11 | COc1c(-c2ccc3c(c2)CCC3CNS(C)(=O)=O)cc(-n2ccc(=O)[nH]c2=O)cc1C(C)(C)C (stereo not drawn) [IB-L0-2.17, N-((5-(3-tert-butyl-5-(2,4-dioxo-3,4-dihydropyrimidin-1(2H)-yl)-2-methoxyphenyl)-2,3-dihydro-1H-inden-1-yl)methyl)methanesulfonamide] | < 10 | 10 to 100
12 | CC(C)(C)c1cc(-c2ccc3c(c2)CC/C3=N\NS(C)(=O)=O)cc(-n2ccc(=O)[nH]c2=O)c1 [IB-L0-2.7, (E)-N-(5-(3-tert-butyl-5-(2,4-dioxo-3,4-dihydropyrimidin-1(2H)-yl)phenyl)-2,3-dihydro-1H-inden-1-ylidene)methanesulfonohydrazide] | 10 to 100 | 100 to 1000
13 | COc1c(-c2ccc3c(CNS(C)(=O)=O)csc3c2)cc(-n2ccc(=O)[nH]c2=O)cc1C(C)(C)C [IB-L0-2.11] | < 10 | 10 to 100
14 | COc1c(-c2ccsc2)cc(-n2ccc(=O)[nH]c2=O)cc1-c1ccc2c(c1)CC=C2CNS(C)(=O)=O [IB-L0-2.62] | 10 to 100 | 100 to 1000
15 | COC(=O)NN=C1CCc2cc(-c3cc(-n4ccc(=O)[nH]c4=O)cc(C(C)(C)C)c3OC)ccc21 [IB-L0-2.24, methyl 2-(5-(3-tert-butyl-5-(2,4-dioxo-3,4-dihydropyrimidin-1 (2H)-yl)-2-methoxyphenyl)-2,3-dihydro-1H-inden-1-ylidene)hydrazinecarboxylate] | 10 to 100 | 10 to 100
16 | COc1c(-c2ccc3c(c2)CC[C@H]3CNS(C)(=O)=O)cc(-n2ccc(=O)[nH]c2=O)cc1C(C)(C)C (single isomer, unassigned) [IB-L0-2.15] | 10 to 100 | 100 to 1000
17 | COc1c(-c2ccc3c(c2)CCC3O)cc(-n2ccc(=O)[nH]c2=O)cc1C(C)(C)C (stereo not drawn) [IB-L0-2.36, 1-(3-tert-butyl-5-(1-hydroxy-2,3-dihydro-1H-inden-5-yl)-4-methoxyphenyl)pyrimidine-2,4(1H,3H)-dione] | 10 to 100 | 100 to 1000
18 | COc1c(-c2ccc3c(c2)CCC3=O)cc(-n2ccc(=O)[nH]c2=O)cc1C(C)(C)C [IB-L0-2.50, 1-(3-tert-butyl-4-methoxy-5-(1-oxo-2,3-dihydro-1H-inden-5-yl)phenyl)pyrimidine-2,4(1H,3H)-dione] | 100 to 1000 | 100 to 1000
19 | COc1c(-c2ccc3c(c2)CCC3(C)CNS(C)(=O)=O)cc(-n2ccc(=O)[nH]c2=O)cc1C(C)(C)C (stereo not drawn) [IB-L0-2.25, N-((5-(3-tert-butyl-5-(2,4-dioxo-3,4-dihydropyrimidin-1(2H)-yl)-2-methoxyphenyl)-1-methyl-2,3-dihydro-1H-inden-1-yl)methyl)methane sulfonamide] | 10 to 100 | 100 to 1000
20 | COc1c(-c2ccoc2)cc(-n2ccc(=O)[nH]c2=O)cc1-c1ccc2c(c1)CC=C2CNS(C)(=O)=O [IB-L0-2.67] | 10 to 100 | 100 to 1000
21 | COc1c(-c2ccc3c(CN(C)S(C)(=O)=O)csc3c2)cc(-n2ccc(=O)[nH]c2=O)cc1C(C)(C)C [IB-L0-2.21] | 10 to 100 | 100 to 1000
22 | COc1c(-c2ccc3c(c2)CC[C@H]3C(C)(C)NS(C)(=O)=O)cc(-n2ccc(=O)[nH]c2=O)cc1C(C)(C)C (single isomer, unassigned) [IB-L0-2.37] | 100 to 1000 | > 1000
23 | COc1c(-c2ccc3c(c2)CC=C3CNS(C)(=O)=O)cc(-n2ccc(=O)[nH]c2=O)cc1C(C)(C)C [IB-L0-2.13] | < 10 | 10 to 100
24 | COc1c(-c2ccc3c(c2)CCC3C(C)(C)NS(C)(=O)=O)cc(-n2ccc(=O)[nH]c2=O)cc1C(C)(C)C (stereo not drawn) [IB-L0-2.29, N-(2-(5-(3-tert-butyl-5-(2,4-dioxo-3,4-dihydropyrimidin-1(2H)-yl)-2-methoxyphenyl)-2,3-dihydro-1H-inden-1-yl)propan-2-yl)methanesulfonamide] | 10 to 100 | 100 to 1000
